Results on three compounds are retold here after PMC10540603 (Biochemical and biophysical research communications, 2022).

One experiment deals with T1, CquiOrco (Culex quinquefasciatus, UniProt Q309I4).
T1 sequence (Q309I4 1-480): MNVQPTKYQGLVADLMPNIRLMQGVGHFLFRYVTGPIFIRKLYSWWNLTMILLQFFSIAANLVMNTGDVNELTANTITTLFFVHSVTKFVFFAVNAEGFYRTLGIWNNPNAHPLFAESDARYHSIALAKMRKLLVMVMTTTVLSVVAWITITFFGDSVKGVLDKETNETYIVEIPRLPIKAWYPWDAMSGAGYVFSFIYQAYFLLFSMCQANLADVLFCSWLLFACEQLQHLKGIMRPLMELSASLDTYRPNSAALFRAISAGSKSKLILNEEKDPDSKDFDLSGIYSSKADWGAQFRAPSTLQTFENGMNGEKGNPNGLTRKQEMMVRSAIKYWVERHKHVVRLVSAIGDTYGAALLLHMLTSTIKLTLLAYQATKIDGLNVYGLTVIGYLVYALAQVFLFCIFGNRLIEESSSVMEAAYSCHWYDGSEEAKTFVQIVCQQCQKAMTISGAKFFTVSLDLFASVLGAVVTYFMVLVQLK
Put plainly: two-electrode voltage clamp, Xenopus oocytes. It counts as cell-based. Conditions: agonist; coreceptor expressed alone; pH 7.6. For orientation: Two-electrode voltage clamp holds a large cell at a set potential and records current.

Another experiment deals with T2, CquiOR32/CquiOrco (Culex quinquefasciatus, UniProt A0A0K0KUF8).
T2 sequence (A0A0K0KUF8 1-397): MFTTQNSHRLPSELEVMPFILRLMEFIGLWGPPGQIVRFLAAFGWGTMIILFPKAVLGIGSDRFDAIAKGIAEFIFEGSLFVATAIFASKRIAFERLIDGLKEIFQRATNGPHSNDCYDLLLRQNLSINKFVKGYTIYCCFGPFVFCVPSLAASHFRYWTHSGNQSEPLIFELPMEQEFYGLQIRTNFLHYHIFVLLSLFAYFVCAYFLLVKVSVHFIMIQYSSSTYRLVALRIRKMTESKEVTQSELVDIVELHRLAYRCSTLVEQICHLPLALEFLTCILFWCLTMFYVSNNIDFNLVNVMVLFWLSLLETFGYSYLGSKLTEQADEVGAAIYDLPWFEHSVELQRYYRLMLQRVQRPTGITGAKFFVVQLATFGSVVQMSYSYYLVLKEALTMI
T2 sequence (UPI0018E3CDA7 1-480 partner): T1 sequence (Q309I4 1-480) with K267E, V399I
Put plainly: two-electrode voltage clamp, Xenopus oocytes. The format is cell-based. As to conditions: 1 mM source dose, -80 mV, pH 7.6.

Molecules are shown by their SMILES. Substitutions are numbered along the chain they refer to.

In the case of `CCn1c(SCC(=O)Nc2ccc(C(C)C)cc2)nnc1-c1ccncc1` [OLC12, 2-{[4-Ethyl-5-(4-pyridinyl)-4H-1,2,4-triazol-3-yl]sulfanyl}-N-(4-isopropylphenyl)acetamide], the “two-electrode voltage clamp, Xenopus oocytes” value (from here on “two-electrode voltage clamp”) at CquiOrco is “CquiOrco-expressing oocytes generated inward currents when challenged with OLC12”.

In the case of `CC12CCC(C1)C(C)(C)C2=O` (stereo not drawn) [fenchone], the “two-electrode voltage clamp” value on CquiOR32/CquiOrco (inhibitor, outward currents) is “more prominent than the outward currents elicited by fenchone and eucalyptol”. As to `COC(=O)c1ccccc1O` [methyl salicylate], the “two-electrode voltage clamp” value at CquiOR32/CquiOrco (agonist, inward currents) is reported as “Methyl salicylate-elicited inward currents recorded with CquiOR32/CquiOrco-expressing oocytes”.
